In ChEMBL document CHEMBL4613244, “Absolute Configuration and Corrected NMR Assignment of 17-Hydroxycyclooctatin, a Fused 5-8-5 Tricyclic Diterpene” (J Nat Prod, 2020):
Calls of active or inactive are those of the source. No cut-off for these calls is given here.

Key:
Type in all cases: functional, cell-based
[1] = tested on: MCF7; assay: Anti-estrogenic activity in human MCF7 cells assessed as reduction in 17beta-estradiol-induced cell viability at 100 nM after 24 hrs by MTT assay
[2] = tested on: MCF7; assay: Antiproliferative activity against human MCF7 cells assessed as reduction in cell viability after 24 hrs by MTT assay; conditions: MCF7, 24 h
[3] = tested on: MCF7; assay: Anti-estrogenic activity in human MCF7 cells assessed as reduction in 17beta-estradiol-induced cell viability at 100 to 200 uM after 24 hrs by MTT assay

C[C@]12CC[C@@H]3c4ccc(O)cc4C[C@@H](CCCCCCCCC[S+]([O-])CCCC(F)(F)C(F)(F)F)[C@H]3[C@@H]1CC[C@@H]2O (stereo partly drawn)
Activity [1]: Active

C[C@H](CO)[C@H]1CC[C@]2(C)C[C@@H]3[C@H](CO)C[C@@H](O)[C@H]3[C@@](C)(O)C/C=C/12
IC50 [2]: 567 µM
Activity [3]: Active
